# Measured values from US6194387A, “6-O-aklyl erythromycin B oxime” (Abbott Laboratories, priority 1999, dated 2001).
# Like-named read-outs stand apart in the source and are kept apart here.
# Legend:
# STAP[…] = test: in vitro antibacterial activity, agar dilution MIC; format: cell-based, Staphylococcus agalactiae; details: Staphylococcus, read-out: SMIC
# Experimental: (§1) 6-O-Methyl-9-oxime erythromycin B prepared in accordance with Examples 1 and 2 was assayed in vitro for anitbacterial activity as follows: Twelve petri dishes containing successive aqueous dilutions of the test compound mixed with 10 mL of sterilized Brain Heart Infusion (BHI) agar (Difco 0418-01-5) were prepared. Each plate was inoculated with 1:100 (or 1:10 for slow-growing strains, such as Micrococcus and Streptococcus) dilutions of up to 32 different micoorganisims, using a Steers replicatore block. The inoculated plates were incubated at 35-37° C. for 20 to 24 hours. In addition, a control plate, using BHI agar containing no test compound, was prepared and incubated at the beginning and end of each test.
# (§2) An additional plate containing a compound having known susceptibility patterns for the organisms being tested and belonging to the same antibiotic class as the test compound was also prepared and incubated as further control, as well as to provide test-to-test comparability. Erythromycin A was used for this purpose.
# (§3) After incubation, each disk was read. The minimum inhibitory concentration (MIC) was defined as the lowest concentration of drug yielding no growth, a slight haze, or sparsely isolated colonies on the inoculum spot as compared to the growth control.
# M[…] [1] = test: in vitro antibacterial activity, agar dilution MIC; format: cell-based, Micrococcus pyogenes; details: Staphylococcus aureus, ATCC9341, read-out: SMIC
# Experimental: as §1, §2, §3
# EN[…] [2] = test: in vitro antibacterial activity, agar dilution MIC; format: cell-based, Enterobacter aerogenes; details: Klebsiella aerogenes, ATCC13048, read-out: SMIC
# Experimental: as §1, §2, §3
# CANDIDA ALBICANS = test: in vitro antimicrobial activity, agar dilution MIC; format: cell-based; details: read-out: SMIC
# Experimental: as §1, §2, §3
# PSEUDOMONAS AERUGINOSA = test: in vitro antibacterial activity, agar dilution MIC; format: cell-based
# Experimental: as §1, §2, §3
# M[…] [3] = test: in vitro antibacterial activity, agar dilution MIC; format: cell-based; details: Micrococcus luteus, ATCC4698, read-out: SMIC
# Experimental: as §1, §2, §3
# STAPHYLOCOCCUS BOVIS = test: in vitro antibacterial activity, agar dilution MIC; format: cell-based; details: read-out: SMIC
# Experimental: as §1, §2, §3
# [4] = tested on: STAPHYLOCOCCUS PNEUMONIAE; test: in vitro antibacterial activity, agar dilution MIC; format: cell-based
# Experimental: as §1, §2, §3
# STAPHYLOCOCCUS PYOGENES = test: in vitro antibacterial activity, agar dilution MIC; format: cell-based
# Experimental: as §1, §2, §3
# PSEUDOMONAS CEPACIA = test: in vitro antibacterial activity, agar dilution MIC; format: cell-based; details: Burkholderia cepacia; Table 2; 2961; read-out: SMIC
# Experimental: as §1, §2, §3
# HAEMOPHILUS INFLUENZAE = test: in vitro antibacterial activity, agar dilution MIC; format: cell-based
# Experimental: as §1, §2, §3
# STAPHYLOCOCCUS AUREUS = test: in vitro antibacterial activity, agar dilution MIC; format: cell-based
# Experimental: as §1, §2, §3
# [5] = tested on: ACINETOBACTER CALCOACETICUS; test: in vitro antibacterial activity, agar dilution MIC; format: cell-based; details: read-out: SMIC
# Experimental: as §1, §2, §3
# [6] = tested on: STAPHYLOCOCCUS EPIDERMIDIS; test: in vitro antibacterial activity, agar dilution MIC; format: cell-based; details: read-out: SMIC
# Experimental: as §1, §2, §3
# NOCARDIA ASTEROIDES = test: in vitro antibacterial activity, agar dilution MIC; format: cell-based; details: ATCC9970, Table 2, ATCC 9970, read-out: SMIC
# Experimental: as §1, §2, §3
# EN[…] [7] = test: in vitro antibacterial activity, agar dilution MIC; format: cell-based; details: Enterococcus faecium, ATCC8043, read-out: SMIC
# Experimental: as §1, §2, §3
# MYCOBACTERIIUM SMEGMATIS = test: in vitro antibacterial activity, agar dilution MIC; format: cell-based; details: read-out: SMIC
# Experimental: as §1, §2, §3
# KLEBSIELLA PNEUMONIAE = test: in vitro antibacterial activity, agar dilution MIC; format: cell-based; details: ATCC8045, read-out: SMIC
# Experimental: as §1, §2, §3
# PROVIDENCIA STUART II = test: in vitro antibacterial activity, agar dilution MIC; format: cell-based; details: read-out: SMIC
# Experimental: as §1, §2, §3
compound,measurement,setting,value
"CC[C@H]1OC(=O)[C@H](C)[C@@H](O[C@H]2C[C@@](C)(OC)[C@@H](O)[C@H](C)O2)[C@H](C)[C@@H](O[C@@H]2O[C@H](C)C[C@H](N(C)C)[C@H]2O)[C@](C)(O)C[C@@H](C)C(=O)[C@H](C)[C@@H](O)[C@]1(C)O [Erythromycin A, reference compound]",MIC,STAP[…],0.01 µg/mL
same,MIC,M[…] [1],0.01 µg/mL
same,MIC,EN[…] [2],> 100 µg/mL
same,MIC,CANDIDA ALBICANS,> 100 µg/mL
same,MIC,"PSEUDOMONAS AERUGINOSA; read-out: SMIC, Table 2, 5007",> 100 µg/mL
same,MIC,"PSEUDOMONAS AERUGINOSA; read-out: SMIC, Table 2, BMH10",100 µg/mL
same,MIC,"PSEUDOMONAS AERUGINOSA; read-out: SMIC, Table 2, DPHD-2862",> 100 µg/mL
same,MIC,"PSEUDOMONAS AERUGINOSA; read-out: SMIC, Table 2, DPHD-5263",> 100 µg/mL
same,MIC,"PSEUDOMONAS AERUGINOSA; read-out: SMIC, Table 2, K799/61",0.78 µg/mL
same,MIC,"PSEUDOMONAS AERUGINOSA; read-out: SMIC, Table 2, K799/wt",> 100 µg/mL
same,MIC,M[…] [3],0.39 µg/mL
same,MIC,STAPHYLOCOCCUS BOVIS,0.01 µg/mL
same,MIC,"[4]; read-out: SIMC, Table 3, 5649",8 µg/mL
same,MIC,"[4]; read-out: SIMC, Table 3, 5654",16 µg/mL
same,MIC,"[4]; read-out: SIMC, Table 3, 5728",128 µg/mL
same,MIC,"[4]; read-out: SIMC, Table 3, 5737",128 µg/mL
same,MIC,"[4]; read-out: SIMC, Table 3, 5979",128 µg/mL
same,MIC,"[4]; read-out: SIMC, Table 3, GYR 1171",0.03 µg/mL
same,MIC,"STAPHYLOCOCCUS PYOGENES; read-out: SIMC, Table 3, 930",128 µg/mL
same,MIC,"STAPHYLOCOCCUS PYOGENES; read-out: SIMC, Table 3, EES61",0.03 µg/mL
same,MIC,"STAPHYLOCOCCUS PYOGENES; read-out: SIMC, Table 3, PIU 2548",16 µg/mL
same,MIC,"STAPHYLOCOCCUS PYOGENES; read-out: SMIC, Table 2, 930",> 100 µg/mL
same,MIC,"STAPHYLOCOCCUS PYOGENES; read-out: SMIC, Table 2, EES61",0.01 µg/mL
same,MIC,"STAPHYLOCOCCUS PYOGENES; read-out: SMIC, Table 2, PIU 2548",6.2 µg/mL
same,MIC,PSEUDOMONAS CEPACIA,> 100 µg/mL
same,MIC,"HAEMOPHILUS INFLUENZAE; ATCC10211, read-out: SIMC, Table 3, ATCC 10211",8 µg/mL
same,MIC,"HAEMOPHILUS INFLUENZAE; ATCC19418, read-out: SIMC, Table 3, ATCC 19418",8 µg/mL
same,MIC,"HAEMOPHILUS INFLUENZAE; ATCC43095, read-out: SIMC, Table 3, ATCC 43095",1 µg/mL
same,MIC,"HAEMOPHILUS INFLUENZAE; read-out: SIMC, Table 3, CMX 503B",8 µg/mL
same,MIC,"HAEMOPHILUS INFLUENZAE; read-out: SIMC, Table 3, CMX 504",8 µg/mL
same,MIC,"HAEMOPHILUS INFLUENZAE; read-out: SIMC, Table 3, CMX 519A",4 µg/mL
same,MIC,"HAEMOPHILUS INFLUENZAE; read-out: SIMC, Table 3, CMX 566A",4 µg/mL
same,MIC,"HAEMOPHILUS INFLUENZAE; read-out: SIMC, Table 3, CMX 588A",4 µg/mL
same,MIC,"HAEMOPHILUS INFLUENZAE; read-out: SIMC, Table 3, CMX 632A",4 µg/mL
same,MIC,"HAEMOPHILUS INFLUENZAE; read-out: SIMC, Table 3, CMX 747C",8 µg/mL
same,MIC,"HAEMOPHILUS INFLUENZAE; read-out: SIMC, Table 3, CMX 751",8 µg/mL
same,MIC,"HAEMOPHILUS INFLUENZAE; read-out: SIMC, Table 3, GYR 1177",0.25 µg/mL
same,MIC,"HAEMOPHILUS INFLUENZAE; read-out: SIMC, Table 3, GYR 1435",2 µg/mL
same,MIC,"HAEMOPHILUS INFLUENZAE; read-out: SIMC, Table 3, SOL AMP R",4 µg/mL
same,MIC,"HAEMOPHILUS INFLUENZAE; read-out: SIMC, Table 3, SPK AMP R",4 µg/mL
same,MIC,"STAPHYLOCOCCUS AUREUS; ATCC6538P, read-out: SMIC, Table 2, ATCC 6538P",0.39 µg/mL
same,MIC,"STAPHYLOCOCCUS AUREUS; read-out: SMIC, Table 2, 1775",> 100 µg/mL
same,MIC,"STAPHYLOCOCCUS AUREUS; read-out: SMIC, Table 2, A5177",12.5 µg/mL
same,MIC,"STAPHYLOCOCCUS AUREUS; read-out: SMIC, Table 2, A-5278",> 100 µg/mL
same,MIC,"STAPHYLOCOCCUS AUREUS; read-out: SMIC, Table 2, CMX 553",0.39 µg/mL
same,MIC,"STAPHYLOCOCCUS AUREUS; read-out: SMIC, Table 2, CMX 642A",0.39 µg/mL
same,MIC,"STAPHYLOCOCCUS AUREUS; read-out: SMIC, Table 2, NCTC10649M",0.39 µg/mL
same,MIC,[5],12.5 µg/mL
same,MIC,[6],0.2 µg/mL
same,MIC,NOCARDIA ASTEROIDES,0.005 µg/mL
same,MIC,EN[…] [7],0.05 µg/mL
same,MIC,MYCOBACTERIIUM SMEGMATIS,12.5 µg/mL
same,MIC,KLEBSIELLA PNEUMONIAE,> 100 µg/mL
same,MIC,PROVIDENCIA STUART II,> 100 µg/mL
